In the supplement of paper PMC11061612:

Key:
Assay in all cases: Bliss excess, mean over the matrix (fraction); higher = more synergy
[1] = system: MHH-CALL-2 (B-Lymphoblastic Leukemia)
Summary of the method: (§1)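 Bliss excess equals the observed combination effect minus the expected value EA + EB − EA·EB, where EA and EB are the effects of each agent alone. Combination Emax is the second-highest inhibition within the matrix. Inhibition was scaled from CellTiter-Glo 2.0 luminescence, with 0 set by vehicle wells and 1 by blank wells, after 72 hours of two-drug dosing of cells plated in 1536-well plates.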

[2] = system: HuH-7 (Hepatocellular Carcinoma)
Summary of the method: as §1

[3] = system: ESS-1 (Other Solid Carcinomas)
Summary of the method: as §1

[4] = system: LS-123 (Colorectal Carcinoma)
Summary of the method: as §1

[5] = system: LOXIMVI (Melanoma)
Summary of the method: as §1

[6] = system: CAL-72 (Osteosarcoma)
Summary of the method: as §1

[7] = system: LNZTA3WT4 (Low Grade Glioma)
Summary of the method: as §1

[8] = system: OV-56 (Ovarian Carcinoma)
Summary of the method: as §1

[9] = system: KMRC-20 (Kidney Carcinoma)
Summary of the method: as §1

[10] = system: BE2-M17 (Neuroblastoma)
Summary of the method: as §1

[11] = system: BE-13 (T-Lymphoblastic Leukemia)
Summary of the method: as §1

[12] = system: LCLC-97TM1 (Non-Small Cell Lung Carcinoma)
Summary of the method: as §1

[13] = system: L-428 (Hodgkin's Lymphoma)
Summary of the method: as §1

[14] = system: OVCAR-5 (Ovarian Carcinoma)
Summary of the method: as §1

[15] = system: NCI-H209 (Small Cell Lung Carcinoma)
Summary of the method: as §1

[16] = system: KS-1 (Glioblastoma)
Summary of the method: as §1

[17] = system: NCI-H1568 (Lung Adenocarcinoma)
Summary of the method: as §1

[18] = system: HeLa (Cervical Carcinoma)
Summary of the method: as §1

[19] = system: KYAE-1 (Esophageal Adenocarcinoma)
Summary of the method: as §1

[20] = system: CAL-33 (Oral Cavity Carcinoma)
Summary of the method: as §1

Compound | Bliss excess [1] | Bliss excess [2] | Bliss excess [3] | Bliss excess [4] | Bliss excess [5] | Bliss excess [6] | Bliss excess [7] | Bliss excess [8] | Bliss excess [9] | Bliss excess [10] | Bliss excess [11] | Bliss excess [12] | Bliss excess [13] | Bliss excess [14] | Bliss excess [15] | Bliss excess [16] | Bliss excess [17] | Bliss excess [18] | Bliss excess [19] | Bliss excess [20]
COc1nnc2ccc(N3CCC(c4ccc(OCCN5CCN(C)C(=O)[C@H]5C)cc4)CC3)nn12 [AZD5153] + C=CCn1c(=O)c2cnc(Nc3ccc(N4CCN(C)CC4)cc3)nc2n1-c1cccc(C(C)(C)O)n1 [AZD1775] (first compound max 1 µM, partner max 1 µM) | -0.0843 | 0.0129 | -0.0749 | -0.0445 | -0.0494 | -0.0524 | -0.0356 | -0.0105 | -0.0446 | 0.0026 | -0.0879 | -0.0845 | -0.0411 | -0.0591 | 0.0223 | -0.0308 | -0.102 | -0.072 | -0.0142 | -0.0757
Cn1cnc2c(F)c(Nc3ccc(Br)cc3Cl)c(C(=O)NOCCO)cc21 [Selumetinib] + C=CCn1c(=O)c2cnc(Nc3ccc(N4CCN(C)CC4)cc3)nc2n1-c1cccc(C(C)(C)O)n1 [AZD1775] (first compound max 10 µM, partner max 1 µM) | -0.0087 | -0.0509 | -0.052 | 0.0099 | 0.0822 | -0.117 | -0.0443 | -0.0766 | -0.0682 | -0.11 | -0.0423 | -0.0335 | -0.0744 | -0.0074 | -0.0211 | -0.0037 | -0.0331 | -0.0826 | -0.0019 | -0.0194
CN(C)CCCOc1ccc(-c2ccc3ncc4c(c3c2)n(C2CCOCC2)c(=O)n4C)cn1 [AZD0156] + O=C(c1cc(Cc2n[nH]c(=O)c3ccccc23)ccc1F)N1CCN(C(=O)C2CC2)CC1 [Olaparib] (first compound max 3 µM, partner max 3 µM) | 0.106 | -0.0107 | 0.0655 | -0.0346 | 0.0317 | 0.0475 | -0.0184 | -0.0449 | 0.0163 | 0.0515 | 0.0894 | -0.0124 | -0.0116 | -0.0123 | 0.163 | 0.0259 | 0.0101 | -0.0057 | 0.0247 | 0.0741
Cc1c2c(nn1C)CSCc1cc(n(C)n1)CSc1cc(c3ccccc3c1)OCCCc1c(C(=O)O)n(C)c3c-2c(Cl)ccc13 [AZD5991] + C1CN(CCC1(C(=O)N[C@@H](CCO)C2=CC=C(C=C2)Cl)N)C3=NC=NC4=C3C=CN4 [Capivasertib] (first compound max 1 µM, 7x7, partner max 3 µM) | 0.0182 | -0.0116 | -0.0113 | 0.0203 | -0.0067 | 0.005 | 0.0495 | -0.0006 | -0.0163 | -0.0068 | 0.0349 | -0.0061 | -0.0007 | -0.0337 | 0.0273 | -0.0181 | -0.012 | 0.0059 | -0.0194 | 0.0067
NC1(C(=O)N[C@@H](CCO)c2ccc(Cl)cc2)CCN(c2ncnc3[nH]ccc23)CC1 [Capivasertib] + Cn1cnc2c(F)c(Nc3ccc(Br)cc3Cl)c(C(=O)NOCCO)cc21 [Selumetinib] (first compound max 10 µM, 7x7, partner max 10 µM) | 0.156 | -0.0428 | -0.0183 | 0.0583 | 0.107 | 0.0427 | -0.0292 | 0.01 | -0.133 | 0.0158 | 0.0265 | 0.0752 | -0.0127 | -0.028 | -0.0108 | 0.0426 | -0.055 | 0.0032 | -0.0064 | 0.0926
NC1(C(=O)N[C@@H](CCO)c2ccc(Cl)cc2)CCN(c2ncnc3[nH]ccc23)CC1 [Capivasertib] + COc1nnc2ccc(N3CCC(c4ccc(OCCN5CCN(C)C(=O)[C@H]5C)cc4)CC3)nn12 [AZD5153] (first compound max 10 µM, 7x7, partner max 1 µM) | -0.03 | -0.0061 | 0.0342 | 0.0517 | 0.0133 | 0.005 | 0.0305 | 0.0506 | 0.0004 | 0.0666 | -0.0281 | 0.0079 | -0.0239 | 0.0138 | -0.0007 | -0.0211 | -0.0032 | -0.0021 | 0.0352 | 0.051
COc1nnc2ccc(N3CCC(c4ccc(OCCN5CCN(C)C(=O)[C@H]5C)cc4)CC3)nn12 [AZD5153] + CC1(C)CCC(CN2CCN(c3ccc(C(=O)NS(=O)(=O)c4ccc(NCC5CCOCC5)c([N+](=O)[O-])c4)c(Oc4cnc5[nH]ccc5c4)c3)CC2)=C(c2ccc(Cl)cc2)C1 [Venetoclax] (first compound max 1 µM, 7x7, partner max 1 µM) | -0.0292 | -0.0987 | -0.017 | 0.0205 | -0.0687 | -0.0305 | -0.0571 | -0.062 | -0.0096 | 0.0308 | -0.0428 | -0.0277 | -0.082 | -0.052 | -0.008 | -0.0763 | -0.0383 | -0.0574 | -0.0171 | -0.0393
